Square brackets hold non-standard residues; d marks the D form. Peptide text beside a SMILES is read from it. * marks the point of attachment. 1Nal = N[C@@H](Cc1cccc2ccccc12)C(=O)O; Npys = O=[N+]([O-])c1cccnc1S*; Leu(ol) = CC(C)C[C@H](N)CO; Cbz = O=C(OCc1ccccc1)*; Mpa = O=C(O)CCS
Biological target: T1, human renin (Homo sapiens, UniProt P00797)
T1 sequence (P00797 67-406): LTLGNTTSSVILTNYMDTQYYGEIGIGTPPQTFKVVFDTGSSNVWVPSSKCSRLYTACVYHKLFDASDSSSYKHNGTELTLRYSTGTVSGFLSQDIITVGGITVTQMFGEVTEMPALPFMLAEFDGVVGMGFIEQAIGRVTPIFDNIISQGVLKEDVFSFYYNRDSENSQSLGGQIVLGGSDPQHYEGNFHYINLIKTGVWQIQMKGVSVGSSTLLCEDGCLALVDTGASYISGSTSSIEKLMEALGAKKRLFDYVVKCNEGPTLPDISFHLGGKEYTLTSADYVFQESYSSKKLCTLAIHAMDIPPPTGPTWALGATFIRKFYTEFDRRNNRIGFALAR
Assay: Inhibition of renin activity (human renin with sheep angiotensinogen, assay of angiotensin I)
Format: biochemical
Conditions: test compound 5 × 10^-5 mole/liter, phosphate buffer pH 7.3, 10 minutes at 37° C., mean of 3 or 4 experiments
Method: The ability of various compounds of the invention to inhibit the activity of renin was determined according to the following method.
Specifically, each test compound was dissolved in 60% v/v aqueous ethanol. Human renin activity in the presence and absence of each compound was measured using sheep angiotensinogen. The total volume of 1 ml of assay mixture contained 0.1 mole/liter phosphate buffer (pH 7.3), human renin (equivalent to 0.5 ng angiotensin I per ml per minute), sheep angiotensinogen (equivalent to 200 ng angiotensin I), the indicated concentration of the test compound, 6% ethanol and angiotensinase inhibitors (10 mmole/liter sodium ethylenediaminetetraacetate and 3.4 mmole/liter 8-hydroxyquinoline). The mixture was allowed to react for 10 minutes at 37° C., and then the reaction was stopped by placing the reaction tube in a boiling water bath for 5 minutes. The mixture was then centrifuged and the supernatant (0.05-0.1 ml) was used to assay remaining angiotensin I.
An identical experiment was carried out, as a control, except that the test compound was omitted. From the values obtained were calculated the % inhibition of renin activity achieved by each test compound. The results are shown in the following Table, in which the compounds of the invention are identified by the numbers assigned to them in the foregoing list. The values given are the mean of 3 or 4 experiments.

| % Inhibition | SMILES |
| --- | --- |
| 53% | CC(C)C[C@@H](C=O)NC(=O)[C@H](Cc1c[nH]cn1)NC(=O)[C@H](Cc1ccccc1)NC(=O)CCCc1ccccc1 [Compound 1, N-(4-phenylbutyryl)-L-phenylalanyl-L-histidyl-L-leucinal] |
| 70% | CC(C)C[C@@H](C=O)NC(=O)[C@H](Cc1c[nH]cn1)NC(=O)[C@H](Cc1ccccc1)NC(=O)CCSSc1ncccc1[N+](=O)[O-] [Compound 2, N-[3-(3-nitro-2-pyridyldithio)propionyl]-L-phenylalanyl-L-histidyl-L-leucinal] ([Mpa](Npys)FHL-aldehyde) |
| 54% | CC(C)C[C@@H](C=O)NC(=O)[C@H](Cc1c[nH]cn1)NC(=O)[C@H](Cc1cccc2ccccc12)NC(=O)OCc1ccccc1 [Compound 3, N-benzyloxycarbonyl-3-(1-naphthyl)-L-alanyl-L-histidyl-L-leucinal] (Cbz-[1Nal]-His-Leu-aldehyde) |
| 58% | CC(C)C[C@@H](CO)NC(=O)[C@H](Cc1c[nH]cn1)NC(=O)[C@H](Cc1ccccc1)NC(=O)OCc1ccccc1 [Compound 10, N-benzyloxycarbonyl-L-phenylalanyl-L-histidyl-L-leucinol] (Cbz-Phe-His-[Leu(ol)]) |
| 70% | CC(C)C[C@@H](CO)NC(=O)[C@H](Cc1c[nH]cn1)NC(=O)[C@H](Cc1ccccc1)NC(=O)CCSSc1ncccc1[N+](=O)[O-] [Compound 11, N-[3-(3-nitro-2-pyridyldithio)propionyl]-L-phenylalanyl-L-histidyl-L-leucinol] ([Mpa](Npys)FH[Leu(ol)]) |
| 71% | CC(C)C[C@@H](CO)NC(=O)[C@H](Cc1c[nH]cn1)NC(=O)[C@H](Cc1cccc2ccccc12)NC(=O)OCc1ccccc1 [Compound 14, N-benzyloxycarbonyl-3-(1-naphthyl)-L-alanyl-L-histidyl-L-leucinol] (Cbz-[1Nal]-His-[Leu(ol)]) |

Reference: patent US4548926A, “Hypotensive peptides and their use” (Sankyo Company Limited, priority 1983, dated 1985)
